Test results taken from patent publication EP0435794A1, “Alkenyl- or heteroaryl thio, sulfone, sulfoxy herbicides” (RHONE-POULENC AGROCHIMIE, priority 1989, dated 1991).

Legend:
Assay type in all cases: in vivo
Digitaria sanguinalis = experiment: Exemple C: selectivity test in field crops, pre-emergence (weed); conditions: 24 days
Excerpt: (§1) Exemple C - Essai de sélectivité en grandes cultures avec application herbicide, en prélevée des espèces végétales
(§2) Dans des pots de 7 X 7 X 8 cm remplis de terre agricole légère, on sème un nombre de graines déterminé en fonction de l'espèce végétale et de la grosseur de la graine.
(§3) On recouvre ensuite les graines d'une couche de terre d'environ 3 mm d'épaisseur.
(§4) Les pots sont alors traités par pulvérisation de bouillie en quantité correspondant à une dose volumique d'application de 500 l/ha et contenant la matière active à la concentration désirée.
(§5) La bouillie a été préparée de la même manière qu'à l'exemple A.
(§6) Les pots traités sont ensuite placés dans des bacs destinés à recevoir l'eau d'arrosage, en subirrigation, et maintenus pendant 24 jours à température ambiante sous 70 % d'humidité relative.
(§7) Le relevé est effectué de la façon suivante:
(§8) Au bout de 24 jours, on mesure un pourcentage (D) de destruction du nombre de pieds dans le pot traité par rapport au nombre de plantes dans les pots non traités (témoin). On mesure, sur les plantes traitées restantes, le pourcentage de réduction de taille (RT) par rapport aux plantes témoins.
(§9) Le pourcentage de volume foliaire non détruit par le produit est donc donné par la formule: ([100-D] X [100-RT])/(100)= A [formula]
(§10) Cette valeur A est transformée en notation de 0 à 5 selon l'échelle suivante:
(§11) Ainsi, un produit est jugé comme sélectif vis à vis de la culture lorsque la valeur A notée est de 0 ou 1.
(§12) Les résultats obtenus sont présentés dans l'exemple C pour des doses d'application de 500, 1000, 2000 ou 4000 g de matière active par hectare selon les produits.
(§13) Les espèces végétales utilisées dans cet exemple sont: […]

Echinochloa crus-galli = experiment: as above; conditions: 24 days
Excerpt: as §1, §2, §3, §4, §5, §6, §7, §8, §9, §10, §11, §12, §13

Panicum milicaeum = experiment: as above; conditions: 24 days
Excerpt: as §1, §2, §3, §4, §5, §6, §7, §8, §9, §10, §11, §12, §13

Setaria faberii = experiment: as above; conditions: 24 days
Excerpt: as §1, §2, §3, §4, §5, §6, §7, §8, §9, §10, §11, §12, §13

Sorghum halepense = experiment: as above; conditions: 24 days
Excerpt: as §1, §2, §3, §4, §5, §6, §7, §8, §9, §10, §11, §12, §13

blé = experiment: Exemple C: selectivity test in field crops, pre-emergence (crop); conditions: 24 days, 0 or 1 = selective; note: ranges in brackets are in %
Excerpt: as §1, §2, §3, §4, §5, §6, §7, §8, §9, §10, §11, §12
(§14) Les espèces végétales utilisées dans cet exemple sont:
(§15) Comme on peut le voir sur le tableau de résultats de cet exemple C, de nombreux produits présentent une excellente activité antigraminée de prélevée tout en montrant une excellente sélectivité pour 1 ou 2 ou 3 ou 4 des 4 cultures testées = blé, maïs, riz, soja.

maïs = experiment: as above; conditions: 24 days, 0 or 1 = selective; note: ranges in brackets are in %
Excerpt: as §1, §2, §3, §4, §5, §6, §7, §8, §9, §10, §11, §12, §14, §15

riz = experiment: as above; conditions: 24 days, 0 or 1 = selective; note: ranges in brackets are in %
Excerpt: as §1, §2, §3, §4, §5, §6, §7, §8, §9, §10, §11, §12, §14, §15

soja = experiment: as above; conditions: 24 days, 0 or 1 = selective; note: ranges in brackets are in %
Excerpt: as §1, §2, §3, §4, §5, §6, §7, §8, §9, §10, §11, §12, §14, §15

Alopecurus myosuroides = experiment: Exemple C: selectivity test in field crops, pre-emergence (weed); conditions: 24 days
Excerpt: as §1, §2, §3, §4, §5, §6, §7, §8, §9, §10, §11, §12, §13

Structure (SMILES) | Notation de l'activité herbicide DIG (Digitaria sanguinalis; dose 1 Kg m.a./ha) | Notation de l'activité herbicide ECh (Echinochloa crus-galli; dose 1 Kg m.a./ha) | Notation de l'activité herbicide PAN (Panicum milicaeum; dose 1 Kg m.a./ha) | Notation de l'activité herbicide SET (Setaria faberii; dose 1 Kg m.a./ha) | Notation de l'activité herbicide SOR (Sorghum halepense; dose 1 Kg m.a./ha) | Notation de l'activité herbicide TRZ (blé; dose 1 Kg m.a./ha) | Notation de l'activité herbicide ZEA (maïs; dose 1 Kg m.a./ha) | Notation de l'activité herbicide ORY (riz; dose 1 Kg m.a./ha) | Notation de l'activité herbicide GLY (soja; dose 1 Kg m.a./ha) | Notation de l'activité herbicide ALO (Alopecurus myosuroides; dose 1 Kg m.a./ha) | Notation de l'activité herbicide ALO (Alopecurus myosuroides; dose 0.5 Kg m.a./ha) | Notation de l'activité herbicide DIG (Digitaria sanguinalis; dose 0.5 Kg m.a./ha) | Notation de l'activité herbicide ECh (Echinochloa crus-galli; dose 0.5 Kg m.a./ha) | Notation de l'activité herbicide PAN (Panicum milicaeum; dose 0.5 Kg m.a./ha) | Notation de l'activité herbicide SET (Setaria faberii; dose 0.5 Kg m.a./ha) | Notation de l'activité herbicide SOR (Sorghum halepense; dose 0.5 Kg m.a./ha) | Notation de l'activité herbicide TRZ (blé; dose 0.5 Kg m.a./ha) | Notation de l'activité herbicide ZEA (maïs; dose 0.5 Kg m.a./ha) | Notation de l'activité herbicide ORY (riz; dose 0.5 Kg m.a./ha) | Notation de l'activité herbicide GLY (soja; dose 0.5 Kg m.a./ha)
O=S(=O)(CC(O)(CBr)c1cc(Cl)cc(Cl)c1)c1cccs1 (stereo not shown) [compound 62] | 5 (O à 10) | 5 (O à 10) | 4 (10 à 30) | 4 (10 à 30) | 2 (50 à 70) | 2 (50 à 70) | 1 (70 à 90) | 2 (50 à 70) | 0 (90 à 100) | – | – | – | – | – | – | – | – | – | – | –
C=C(CS(=O)(=O)c1sc(C)nc1C)c1cccc(C)c1 [compound 47] | 5 (O à 10) | 4 (10 à 30) | 5 (O à 10) | 2 (50 à 70) | 3 (30 à 50) | 0 (90 à 100) | 1 (70 à 90) | 2 (50 à 70) | 0 (90 à 100) | 5 (O à 10) | – | – | – | – | – | – | – | – | – | –
C=C(CS(=O)(=O)c1cc(C)sc1C)c1ccccc1 [compound 51] | 5 (O à 10) | 4 (10 à 30) | 4 (10 à 30) | 4 (10 à 30) | 4 (10 à 30) | 0 (90 à 100) | 0 (90 à 100) | 0 (90 à 100) | 0 (90 à 100) | 4 (10 à 30) | – | – | – | – | – | – | – | – | – | –
O=S(=O)(CC(O)(CBr)c1cccc(Cl)c1)c1ccsc1 (stereo not shown) [compound 64] | 5 (O à 10) | 5 (O à 10) | 5 (O à 10) | 5 (O à 10) | 2 (50 à 70) | 0 (90 à 100) | 2 (50 à 70) | 2 (50 à 70) | 0 (90 à 100) | 3 (30 à 50) | – | – | – | – | – | – | – | – | – | –
CS(=O)(=O)OCC(O)(CS(=O)(=O)c1cccs1)c1cc(Cl)cc(Cl)c1 (stereo not shown) [compound 56, 2-(3,5-dichlorophényl) 1-méthylsulfonate 3-(2-thiénylsulfonyl) 2-propanol] | 5 (O à 10) | 5 (O à 10) | 5 (O à 10) | 5 (O à 10) | 2 (50 à 70) | 2 (50 à 70) | 1 (70 à 90) | 2 (50 à 70) | 0 (90 à 100) | – | – | – | – | – | – | – | – | – | – | –
O=S(=O)(CC(O)(CBr)c1ccc(F)c(Cl)c1)c1ccsc1 (stereo not shown) [compound 65] | – | – | – | – | – | – | – | – | – | – | 0 (90 à 100) | 5 (O à 10) | 5 (O à 10) | 3 (30 à 50) | 0 (90 à 100) | 5 (O à 10) | 0 (90 à 100) | 0 (90 à 100) | 3 (30 à 50) | 0 (90 à 100)
Cc1ccsc1S(=O)(=O)CC(O)(CBr)c1ccccc1 (stereo not shown) [compound 63] | 5 (O à 10) | – | 4 (10 à 30) | 5 (O à 10) | 5 (O à 10) | 3 (30 à 50) | 2 (50 à 70) | 4 (10 à 30) | 0 (90 à 100) | 3 (30 à 50) | – | – | – | – | – | – | – | – | – | –
